In US20120065228A1, “COMPOSITIONS AND METHODS FOR TREATING, CONTROLLING, REDUCING, OR AMELIORATING OCULAR INFLAMMATORY WITH LOWER RISK OF INCREASED INTRAOCULAR PRESSURE” (priority 2007, published 2012):

How the values were obtained:
[1] = test system: intraocular pressure (IOP) in New Zealand White rabbits; assay: Intraocular pressure in New Zealand White rabbits, topical dosing four times daily; assay type: in vivo
Method: On Days 1-31, animals received daily topical doses of the appropriate test article into the right eye. Animals were dosed four times per day, with doses administered 2 hours apart. Doses were administered using a calibrated 50-μL pipette. The eyelids were held close for 10 seconds immediately following dosing. The time of each dose administration was recorded.
Intraocular pressure (“IOP”) was determined for both eyes of each animal on Days 3, 5, 10, 12, 16, 18, 22, 24, 26, 30, and 32. LOP was evaluated with a Medtronic Solan, Model 30 classic pneumatonometer. Proparacaine hydrochloride 0.5% (1 drop) was delivered to each eye prior to IOP measurement. IOP was measured on Monday, Wednesday, and Friday of each week. A two-point diurnal curve was established: IOP was recorded at 8 a.m. and 12 p.m. on Day 3, and at 8 a.m. and 2 p.m. on later days, with a ±1 hour range for each of these times. The time of the measurements was recorded.
Descriptive statistics were prepared for IOP data of each treatment group (left and right eyes separately) at each measurement interval. The statistics included the number of observations (“N”), mean, standard deviation (“STD”), and standard error (“SEM”). Statistical analyses were conducted on IOP results using Statistical Analysis Systems (SAS Institute, Inc., Cary, N.C., V8.0). Parameters were evaluated using analysis of variance/GLM Procedure followed by Tukey's Standardized Range Test (Tukey, 1985) for post hoc comparisons of group means. The level of significance was set at a probability of p<0.05 for all statistical procedures. Group IOP means were compared at each interval, with left and right eyes compared separately.
IOP data for the following six animals were excluded from group statistics: Group A, Nos. 3081, 3037, 3068, and 3011; Group C, No. 3034; and Group E, No. 3084.

myocilin mRNA = assay: Myocilin mRNA expression in monkey TM cells (qRT-PCR); assay type: cell-based, rhesus monkeys (Macaca mulatta); details: Macaca mulatta; cultured monkey TM cells, weighted average, two dose-response studies each using two TM cell strains; read-out: EC50 ± SE, expression of myocilin mRNA
Method: For each study, up to nine TM cell strains, each derived from an individual monkey, were tested separately. Cells were thawed and seeded into 12- or 48-well clusters (Falcon, BD Biosciences; 150,000 and 30,000 cells/well, respectively) in proliferation medium. When cells were 75% to 90% confluent proliferation medium was replaced by a 5:4 mixture of HESFM and Dulbecco's MEM, respectively, supplemented with 10% FBS, with added taurine, ascorbic acid phosphate, glutathione, and antibiotic as for proliferation medium (above), and with 2.72 g/L glucose and 1.72 g/L fructose. At confluence, the medium was changed to Dulbecco's MEM, containing 10% FBS^40, ascorbic acid phosphate, antibiotic, 2.72 g/L glucose and 1.72 g/L fructose. Cells were maintained as stable, confluent monolayers in this latter medium for 4 to 7 days before experimental treatments commenced.
After quantification of purified total RNA (Quant-iT RNA Assay kit, Molecular Probes, Eugene, Oreg.), equivalent amounts of this RNA were apportioned to generate first-strand cDNAs for each treatment sample, using random primers, (Affinity Script, Stratagene, La Jolla, Calif.). Oligonucleotide myocilin primers, designed based on the cynomolgus MYOC gene, and fluorescent Taqman probe (Applied Biosystems, Foster City, Calif.) were used for PCR amplification. Equal amounts of total RNA-equivalent mass (approximate range […]) reactant cDNA were added to the PCR Master Mix (Stratagene) and myocilin primers/Taqman probe. Amplification was performed in a thermocycler (Mx3005P, Stratagene), with an initial denaturation step at 95° C. for 10 min, followed by 40 cycles of 95° C. for 15 sec and 60° C. for 1 min for extension. Every run included standard controls (i.e., either without reverse transcriptase or lacking template). Relative quantities of myocilin mRNA abundance were determined using differences in threshold cycles (“Ct”) between vehicle control and drug treatments. Each sample was analyzed in triplicate wells, and the corresponding values averaged for further quantitative analysis. Myocilin mRNA abundance, expressed in proportion to vehicle control-treated samples, was calculated using the Mx3005P software.
Data underwent Box-Cox transformations for one- or two-way analysis of variance (ANOVA), followed by the Tukey-Kramer test, using JMP software (SAS, Cary, N.C.). The specific transformations used for analyses are mentioned in the figure legends. For each set of triplicate samples from the individual monkey TM cell strains tested, Western blot densitometry values for myocilin protein detected in CM (as geometric means), and relative abundance of myocilin mRNA (as geometric means), were plotted as a function of drug concentrations. P-values less than 0.05 were considered statistically significant. […]

C[C@@H]1C[C@H]2[C@@H]3CCC4=CC(=O)C=C[C@]4(C)[C@@]3(F)[C@@H](O)C[C@]2(C)[C@@]1(O)C(=O)CO [dexamethasone, reference compound]
Mean IOP versus corresponding eyes of other groups ([1]; 0.1% dexamethasone suspension, on several days, p<0.05): significantly higher
Mean IOP after treatment began ([1]; rabbits, right eye four times daily up to 31 days, dexamethasone 0.1%, BOL-303242-X 1, 5, 10 mg/g, left and right eyes): increased sharply
EC50 (myocilin mRNA): 0.0147 ± 0.00127 µM
